Laboratory results as given in the supplement of paper PMC10307832.

Tests used:
Experiment in all cases: relative viability (nuclei count vs DMSO), 5 days (fraction); higher = more cells survive
AZ505 + OSI-027 = compound: C1CCC(CC1)N(CCNCCC2=C3C(=C(C=C2)O)NC(=O)CO3)C(=O)CCNCCC4=CC(=C(C=C4)Cl)Cl [AZ505] + COc1cccc2cc(-c3nc([C@H]4CC[C@H](C(=O)O)CC4)n4ncnc(N)c34)[nH]c12 [OSI-027] (partner 0.5 µM)
Method in brief: (§1)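 One day after seeding in 1536-well plates, lung cancer cell lines were dosed by pin tool. Dosing was either single-drug or a fixed anchor-drug dose plus five library-drug doses (not always all listed) in √10 steps. After 5 days, nuclei were stained in one fix-and-stain step and counted on 4× images, and relative viability is the nuclei count of treated wells over that of vehicle wells, given as the median of duplicate plates.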

AZ505 + Vorinostat = compound: C1CCC(CC1)N(CCNCCC2=C3C(=C(C=C2)O)NC(=O)CO3)C(=O)CCNCCC4=CC(=C(C=C4)Cl)Cl [AZ505] + O=C(CCCCCCC(=O)Nc1ccccc1)NO [Vorinostat] (partner 1 µM)
Method in brief: as §1

Dactolisib + Navitoclax = compound: Cn1c(=O)n(-c2ccc(C(C)(C)C#N)cc2)c2c3cc(-c4cnc5ccccc5c4)ccc3ncc21 [Dactolisib] + CC1(C)CCC(c2ccc(Cl)cc2)=C(CN2CCN(c3ccc(C(=O)NS(=O)(=O)c4ccc(N[C@H](CCN5CCOCC5)CSc5ccccc5)c(S(=O)(=O)C(F)(F)F)c4)cc3)CC2)C1 [Navitoclax] (partner 0.5 µM)
Method in brief: as §1

Dactolisib + Linsitinib = compound: Cn1c(=O)n(-c2ccc(C(C)(C)C#N)cc2)c2c3cc(-c4cnc5ccccc5c4)ccc3ncc21 [Dactolisib] + C[C@]1(O)C[C@@H](c2nc(-c3ccc4ccc(-c5ccccc5)nc4c3)c3c(N)nccn32)C1 [Linsitinib] (partner 1 µM)
Method in brief: as §1

Cell Line	relative viability (AZ505 + OSI-027; first compound 0.08 µM)	relative viability (AZ505 + OSI-027; first compound 0.253 µM)	relative viability (AZ505 + OSI-027; first compound 0.8 µM)	relative viability (AZ505 + OSI-027; first compound 2.53 µM)	relative viability (AZ505 + OSI-027; first compound 8 µM)	relative viability (AZ505 + Vorinostat; first compound 0.08 µM)	relative viability (AZ505 + Vorinostat; first compound 0.253 µM)	relative viability (AZ505 + Vorinostat; first compound 0.8 µM)	relative viability (AZ505 + Vorinostat; first compound 2.53 µM)	relative viability (AZ505 + Vorinostat; first compound 8 µM)	relative viability (Dactolisib + Navitoclax; first compound 0.002 µM)	relative viability (Dactolisib + Navitoclax; first compound 0.006325 µM)	relative viability (Dactolisib + Navitoclax; first compound 0.02 µM)	relative viability (Dactolisib + Navitoclax; first compound 0.06325 µM)	relative viability (Dactolisib + Navitoclax; first compound 0.2 µM)	relative viability (Dactolisib + Linsitinib; first compound 0.002 µM)	relative viability (Dactolisib + Linsitinib; first compound 0.006325 µM)	relative viability (Dactolisib + Linsitinib; first compound 0.02 µM)	relative viability (Dactolisib + Linsitinib; first compound 0.06325 µM)	relative viability (Dactolisib + Linsitinib; first compound 0.2 µM)
NCI-H1651	0.678	0.75	0.725	0.763	0.717	0.443	0.606	0.585	0.607	0.568	1.13	0.865	0.755	0.317	0.276	1.03	0.743	0.714	0.321	0.293
NCI-H1666	0.779	0.817	0.725	0.93	0.912	1.01	1.01	0.962	1.03	1.12	1.3	0.673	0.927	0.667	0.31	0.939	0.865	0.776	0.506	0.42
NCI-H1734	0.515	0.539	0.573	0.559	0.576	0.751	0.842	0.731	0.832	0.773	0.839	0.647	0.743	0.275	0.234	1.02	0.755	0.72	0.336	0.318
NCI-H1755	0.763	0.73	0.643	0.742	0.691	0.782	0.859	0.788	0.743	0.813	1.09	0.943	0.928	0.519	0.467	0.983	0.971	0.989	0.763	0.622
NCI-H1793	0.245	0.228	0.344		0.37	0.637	0.653	0.641	0.898	0.806	0.372	0.416	0.272	0.184	0.159	0.813	0.559	0.321	0.183	0.158
NCI-H1915	0.549	0.563	0.544	0.416	0.587	0.469	0.66	0.508	0.472	0.495	0.783	0.759	0.773	0.781	0.484	1.11	1.13	1.11	0.901	0.631
NCI-H1944	0.396	0.389	0.497	0.385	0.425	0.563	0.551	0.641	0.514	0.55	1.06	0.986	0.933	0.526	0.36	1.36	1.17	1.06	0.524	0.428
NCI-H1975	0.636	0.724	0.804	0.82	0.812	0.632	0.61	0.625	0.592	0.666	1.14	1.01	0.689	0.55	0.362	1.01	0.847	0.551	0.32	0.256
NCI-H1993	0.568	0.572	0.51	0.529	0.556	0.689	0.741	0.994	0.884	0.977	0.827	0.846	0.625	0.537	0.626	0.674	0.686	0.734	0.645	0.73
NCI-H2009	0.615	0.591	0.582	0.539	0.59	0.635	0.678	0.652	0.626	0.678	1.27	1.12	1.1	0.692	0.501	1.21	1.18	1.26	0.639	0.497
NCI-H2023	0.437	0.322	0.421	0.393	0.398	0.57	0.631	0.63	0.588	0.835	1.11	0.95	0.816	0.204	0.201	0.697	0.523	0.622	0.154	0.133
NCI-H2085	0.664	0.536	0.733	0.772	0.858	0.732	0.721	0.675	0.802	0.823	1.17	1.01	0.89	0.584	0.367	1.03	0.714	0.636	0.361	0.381
NCI-H2087	0.403	0.368	0.595	0.518	0.728	0.596	0.903	0.592	0.691	0.913	0.986	0.907	1.02	0.481	0.429	1.02	0.955	0.919	0.555	0.429
NCI-H2126	0.601	0.6	0.689	0.751	0.779	0.724	0.682	0.751	0.696	0.757	0.896	0.77	0.762	0.564	0.399	0.807	0.662	0.674	0.521	0.422
NCI-H2228	0.382	0.341	0.49	0.485	0.477	0.409	0.589	0.543	0.643	0.588	0.875	0.699	0.551	0.241	0.215	0.659	0.488	0.436	0.323	0.193
NCI-H2347	0.25				0.343	0.39	0.417	0.474	0.464	0.352	0.928	0.746	0.729	0.308	0.271	1.29	0.47	0.893	0.68	0.385
